Experimental data reported in patent publication US20090258860A1, “XANTHINE DERIVATIVES FOR THE TREATMENT OF VASCULAR DEPRESSION” (Duke University, priority 2006, published 2009).

Legend:
[1] = test system: elderly patients with a diagnosis of vascular depression currently being treated with an SSRI and/or SNRI; assay: Case studies of pentoxifylline and propentofylline add-on treatment of vascular depression (HDRS); format: in vivo, human; settings: add-on to existing SSRI and/or SNRI
Experimental: These case studies investigate the effects of pentoxifylline and propentofylline in one or more elderly patients (>60 years of age) with a diagnosis of vascular depression and who are currently being treated with an SSRI and/or SNRI.
Patients are evaluated at baseline and at regular intervals for a period of months. They are evaluated according to the Hamilton Depressive Rating Scale (HDRS; Hamilton, J. Neurol. Neurosurg. Psychiatry 23:56-62 (1960)).
In one group, pentoxifylline is administered orally in a dose of 400 mg three times a day to augment their SSRI and/or SNRI treatment regimen. In another group, propentofylline is administered orally in a dose of 200 mg three times a day to augment their SSRI and/or SNRI treatment regimen.

[2] = test system: elderly patients with a diagnosis of vascular depression; assay: Case studies of pentoxifylline and propentofylline treatment of vascular depression (HDRS); format: in vivo, human; settings: oral monotherapy
Experimental: Patients are evaluated at baseline and at regular intervals for a period of months. They are evaluated according to the Hamilton Depressive Rating Scale (HDRS; Hamilton, J. Neurol. Neurosurg. Psychiatry 23:56-62 (1960)). Patients are excluded if their HDRS is ≦15.
In one group, pentoxifylline is administered orally in a dose of 400 mg three times a day. In another group, propentofylline is administered orally in a dose of 200 mg three times a day.

[3] = in vivo; cited from earlier work
[4] = test system: patients with multi-infarct dementia; settings: cited from earlier work

SMILES | tolerability [1] | tolerability [2] | cerebral blood flow [3] | intellectual and cognitive function [4]
CCCn1cnc2c1c(=O)n(CCCCC(C)=O)c(=O)n2C [propentofylline, 1-(5-oxohexyl)-3-methyl-7-n-propylxanthine] | well tolerated | well tolerated | – | –
CC(O)CCCCn1c(=O)c2c(ncn2C)n(C)c1=O (stereo not drawn) [1(5-hydroxyhexyl)-3,7-dimethylxanthine] | – | – | increasing cerebral blood flow | –
CC(=O)CCCCn1c(=O)c2c(ncn2C)n(C)c1=O [pentoxifylline, 1-(5-oxohexyl)-3,7-dimethylxanthine] | well tolerated | well tolerated | – | improve
